# Source: patent publication US20230095695A1, “RNAS FOR COMPLEMENT INHIBITION” (Apellis Pharmaceuticals, Inc., priority 2020, published 2023)
# Oligonucleotides are written 5' to 3', each unit as a sugar letter and its base; * is a phosphorothioate linkage, no mark a phosphodiester; rarer units and linkages stand in square brackets, end groups in braces. Plain capitals give the bases only. Non-standard residues stand in square brackets, D forms with d. {GalNAc-NHC6} = GalNAc ligand attached through an NHC6 linker; Trp(5-F) = N[C@@H](Cc1c[nH]c2ccc(F)cc12)C(=O)O; Bpa = N[C@@H](Cc1ccc(C(=O)c2ccccc2)cc1)C(=O)O; 1Nal = N[C@@H](Cc1cccc2ccccc12)C(=O)O; 2Nal = N[C@@H](Cc1ccc2ccccc2c1)C(=O)O; Dht = not defined here; m = 2'-O-methyl; f = 2'-fluoro
# How the values were obtained:
# [1] = test system: C3 mRNA; assay: Liver biopsy C3 mRNA (quantitative PCR) in non-human primates after single SC dose; type: in vivo, cynomolgus monkeys; details: for reduction of liver C3 mRNA vs vehicle control: by day 15
# Procedure: (§1) Naive male cynomolgus monkeys (n=3 in each group) were subcutaneously (SC) administered a single dose of either 3 mg/kg, 10 mg/kg, or 30 mg/kg siRNA 58, or vehicle (phosphate buffered saline) on day 1.
# Liver needle biopsies were performed on days 15, 46 and 79. The level of C3 mRNA in the samples was measured using a quantitative PCR assay. C3 mRNA level was normalized to the level of ActB mRNA in these experiments.
# [2] = test system: C3 protein; assay: Serum C3 protein (ELISA) in non-human primates after single SC dose; type: in vivo, cynomolgus monkeys; details: for reduction of serum C3 protein vs baseline: by day 29
# Procedure: as §1
# (§2) Serum samples were scheduled to be collected on days −5, −1, 3, 8, 15, 22, 29, 40, 57, 67, 82, 97, 112, 127, 142, 157, 172 and 184 (where negative values correspond to days before injection with siRNA 58 or vehicle). The level of C3 protein in serum was measured using an ELISA assay. Additionally, serum samples were also analyzed for alternative complement pathway activity (AH50). Values at day −1 value were used as the baseline.
# [3] = test system: alternative complement pathway; assay: Serum alternative complement pathway activity (AH50) in non-human primates; type: in vivo, cynomolgus monkeys
# Procedure: as §1, §2
# [4] = test system: complement activation; details: relative to compstatin amidated at the C-terminus; based on published data; cited from earlier work
# [5] = test system: C3 protein; assay: Plasma C3 protein (ELISA) in rats after SC administration; type: in vivo, Sprague-Dawley rats
# Procedure: (§3) Dosing: Animals from groups 1-3 and 8 were dosed with a single subcutaneous injection of PBS vehicle or 3, 10 or 30 mg/kg siRNA 59, formulated at a concentration of 0.6, 2 and 6 mg/ml in PBS, respectively, in a dosing volume of 5 ml. Animals from groups 4-7 were dosed with 3× daily subcutaneous injection of […] siRNA 59, formulated at a concentration of 0.2, 0.6 and 2 mg/ml in PBS, respectively, in a dosing volume of 5 ml.
# (§4) Sampling: For PD analyses, plasma and serum samples were collected at baseline and days 3, 8, 15, 22 and 29 post-dose. Plasma samples were collected at 15 minutes and 1, 4, 8, 24, 48 and 72 hours post-dose. Liver samples were collected at necropsy on days 3 and 30 post-dose.
# Bioanalytical Methods: Plasma PD samples were analyzed for concentrations of C3 protein at Confluence Discovery Technologies (MO, USA) using a double antibody sandwich ELISA kit according to the manufacturer's instructions (Eagle Biosciences; plasma dilution of 1:10,000).
# [6] = test system: C3 mRNA; assay: Liver C3 mRNA (RT-qPCR) in rats; type: in vivo, Sprague-Dawley rats; details: for mean C3 expression in liver, % of gene expression in the vehicle treated arm: 30 mg/kg
# Procedure: as §3, §4
# PD tissue samples were analyzed for C3 mRNA levels using a semi-validated RT-qPCR method at EpigenDx (MA, USA).
# [7] = Tolerability observations in rats; type: in vivo, Sprague-Dawley rats
# Procedure: as §3
# [8] = test system: alternative pathway; assay: Serum alternative pathway complement activation (AP Wieslab assay, C5b-9) in rats; type: in vivo, Sprague-Dawley rats
# Procedure: as §3, §4
# Serum PD samples were analyzed for alternative pathway (AP) complement activation at Confluence Discovery Technologies (MO, USA) using the AP Wieslab assay (Eagle Biosciences, Cat #COMPL AP330).
# Alternative pathway complement activity: Sera from each animal treated with single dose siRNA 59 and vehicle, as well as the multi-dose siRNA (−) control-treated animals, were used in the AP Wieslab assay, an ELISA-based assay that measures formation of C5b-9 following alternative pathway activation, to assess complement activation (FIG. 8). […] Data represents mean±SEM (n=3). Serum AP complement activity was highly variable across the control groups.
# [9] = single SC dose 3, 10 or 30 mg/kg
# [10] = SC 3, 10, 30 mg/kg, single or 3x daily
substance,measurement,setting,value
siRNA 58: siRNA 53 further modified; sense SEQ ID NO: 325 / antisense SEQ ID NO: 275; GalNAc conjugated via NHC6 linker at 5′ end of sense strand (sense {GalNAc-NHC6}-mC*mC*fAmAmCmUfAfCfAmUmGfAmAmCmCmUfA*mC*mA; antisense mU*fG*mUmAmGmGmUmUmCmAmUmGmUfAmGmUmUmGmG*mC*mU) [siRNA 53 further modified; GalNAc conjugated via NHC6 linker at 5′ end of sense strand],reduction of liver C3 mRNA vs vehicle control,[1]; single SC dose 3 mg/kg,89%
same,reduction of liver C3 mRNA vs vehicle control,[1]; single SC dose 10 mg/kg,97%
same,reduction of liver C3 mRNA vs vehicle control,[1]; single SC dose 30 mg/kg,99%
same,duration of liver C3 mRNA reduction,[1]; [9],sustained at day 46
same,reduction of serum C3 protein vs baseline,[2]; single SC dose 3 mg/kg,77%
same,reduction of serum C3 protein vs baseline,[2]; single SC dose 10 mg/kg,85%
same,reduction of serum C3 protein vs baseline,[2]; single SC dose 30 mg/kg,90%
same,duration of serum C3 protein reduction,[2]; [9],sustained out to day 67
same,reduction of alternative complement pathway activity (AH50) vs baseline,"[3]; single SC dose 3 mg/kg, by day 29",65%
same,reduction of alternative complement pathway activity (AH50) vs baseline,"[3]; single SC dose 3 mg/kg, day 67",68%
same,reduction of alternative complement pathway activity (AH50) vs baseline,"[3]; single SC dose 10 mg/kg, by day 29",82%
same,reduction of alternative complement pathway activity (AH50) vs baseline,"[3]; single SC dose 10 mg/kg, day 67",91%
same,reduction of alternative complement pathway activity (AH50) vs baseline,"[3]; single SC dose 30 mg/kg, by day 29",92%
same,reduction of alternative complement pathway activity (AH50) vs baseline,"[3]; single SC dose 30 mg/kg, day 67",98%
Ac-ICVYQDWGAHRCT-CONH2 [AC-V4Y/H9A],Activity over compstatin,[4],14× more
Ac-1CV(2-Igl)QQDWGAHRCT-COOH [Ac-V42lgl/H9A-OH],Activity over compstatin,[4],37× more
siRNA 59: siRNA 33 further modified; sense SEQ ID NO: 326 / antisense SEQ ID NO: 260; GalNAc conjugated via NHC6 linker at 5′ end of sense strand (sense {GalNAc-NHC6}-mU*mC*fCmAmAmGfCfCfUmUmGfGmCmUmCmAfA*mU*mA; antisense mU*fA*mUmUmGmAmGmCmCmAmAmGmGfCmUmUmGmGmA*mA*mC) [siRNA 33 further modified; GalNAc conjugated via NHC6 linker at 5′ end of sense strand],recovery of plasma C3 protein to baseline levels,"[5]; 3 mg/kg dose group, day 29",Full recovery
same,reduction in C3 plasma protein concentration,[5]; 10 mg/kg dose,~90%
same,"plasma C3 concentration, single dose treatment vs QDx3 equivalent dose groups","[5]; 3, 10, 30 mg/kg total dose",comparable
same,recovery of plasma C3 protein to baseline levels,"[5]; 10 and 30 mg/kg dose groups, final blood collection on day 29",did not appear to have fully recovered
same,change in plasma C3 concentration across the dose groups,[5]; [10],clear dose-dependent response
same,time at which maximal C3 protein reduction in plasma was achieved,[5]; all dose groups,≤ 8 study day
same,"mean C3 expression in liver, % of gene expression in the vehicle treated arm",[6]; day 3,3%
same,"mean C3 expression in liver, % of gene expression in the vehicle treated arm",[6]; day 30,25%
same,recovery of liver C3 expression,"[6]; all treatment animals, study termination at day 30",None of the treatment animals had fully recovered
same,reduction in C3 mRNA in liver across doses,[6]; both terminal timepoints (day 3 and day 30),dose-dependent manner
same,level of liver C3 mRNA vs vehicle control,"[6]; single dose PK animal groups, 3 days following treatment",significantly reduced
same,tolerability of the doses used,[7]; [10],well-tolerated
same,body weight following TA administration,[7]; all treatment groups,no loss in body weight
same,signs of distress or behavioral changes,[7]; all treatment groups,No signs of distress or behavioral changes
same,change in AP Wieslab activity,[8]; dose groups other than high-dose (3 and 10 mg/kg),No change
same,mean reduction in alternative pathway activity,"[8]; high dose group (30 mg/kg single SC), day 8 to day 15 post-dose",approximately 90%
Ac-ICV(Bpa)QDWGAHRCT-CONH2 (Ac-ICV[Bpa]QDWGAHRCT-NH2; not fully specified (bridges); printed as Ac-ICV(Bpa)QDWGAHRCT-CONH2; cysteine pairing not given here) [Ac-V4(Bpa)/H9A],Activity over compstatin,[4],86× more
Ac-ICV(2-Nal)QDWGAHRCT-CONH2 (Ac-ICV[2Nal]QDWGAHRCT-NH2; not fully specified (bridges); printed as Ac-ICV(2-Nal)QDWGAHRCT-CONH2; cysteine pairing not given here) [Ac-V4(2-Nal)/H9A],Activity over compstatin,[4],99× more
Ac-ICV(Dht)QDWGAHRCT-COOH (Ac-ICV[Dht]QDWGAHRCT-OH; not fully specified (bridges); printed as Ac-ICV(Dht)QDWGAHRCT-COOH; cysteine pairing not given here; reading uncertain) [Ac-V4Dht/H9A-OH],Activity over compstatin,[4],5× more
Ac-1CVWQD(5fW)GAHRCT-CONH2 (Ac-ICVWQD[Trp(5-F)]GAHRCT-NH2; not fully specified (bridges); printed as Ac-1CVWQD(5fW)GAHRCT-CONH2; cysteine pairing not given here) [Ac-V4W/W7(5fW)/H9A],Activity over compstatin,[4],121× more
Ac-ICV(Bpa)QDWGAHRCT-COOH (Ac-ICV[Bpa]QDWGAHRCT-OH; not fully specified (bridges); printed as Ac-ICV(Bpa)QDWGAHRCT-COOH; cysteine pairing not given here) [Ac-V4(Bpa)/H9A-OH],Activity over compstatin,[4],49× more
Ac-ICV(1-Nal)QDWGAHRCT-COOH (Ac-ICV[1Nal]QDWGAHRCT-OH; not fully specified (bridges); printed as Ac-ICV(1-Nal)QDWGAHRCT-COOH; cysteine pairing not given here) [AcV4(1-Nal)/H9A-OH],Activity over compstatin,[4],30× more
Ac-ICVWQDWGAHRCdT-COOH [AC-V4W/H9A/T13dT-OH],Activity over compstatin,[4],55× more
